What was measured:
spinal cord injury = experiment: Spinal cord complete section, BBB locomotor scoring; type: in vivo, rat; conditions: 10 mM in 10% DMSO/90% aCSF at injury site; from day 7; non-treated stays under 3
Experimental: In this experiment, a complete section of the spinal cord on animals was carried out. Then, neurelaxin A administration was carried out at the injury site, 5-10 min after the injury was performed. This neurelaxin-A administration was carried out via a diluted solution of 10 mM of neurelaxin A in a 10% DMSO/90% aCSF (artificial cerebrospinal fluid) solution, leading to an orange bright precipitate that is slowly soluble into the injury site. Finally, a BBB (Basso, Beattie and Bresnahan) analysis is performed in order to study the sequence of functional locomotor recovery patterns. The scale (0-21) represents sequential recovery stages and categorizes combinations of rat joint movement, hindlimb movements, stepping, forelimb and hind limbcoordination, trunk position and stability, paw placement and tail position.
According to this test, any drug treatment which may increase the BBB scores may be considered neuroprotective in animal models.
In this experiment, treated animals (n=3) were undistinguishable from non-treated animals (n=3). The BBB scoring scale ranges from 0 to 21.

[1] = system: cannabinoid-induced working memory loss; experiment: Novel object recognition (NOR) test with CP55,940; type: in vivo
Experimental: In this experiment, a novel object recognition (NOR) test was performed.
In this test animals are presented to two objects and it will explore them for a while. After, one of the objects is changed for a new and different one. Under normal circumstances animals will be attracted to the novel object and will spend more time exploring it, by comparison to the older and already known object. Animals with memory deficit will explore both objects equally.
The synthetic cannabinoid CB1R agonist CP55,940 is administrated 1 hour prior to the familiarization step. Thirty minutes prior to the familiarization animals are either treated or not with neurelaxin-A.

## Cc1ccc2c(c1)C(=O)C1(O)CCN(c3ccc(N)cc3)C1=N2 (stereo not drawn) [Neurelaxin-A, 1-(4-aminophenyl)-3a-hydroxy-6-methyl-3,3a-dihydro-1H-pyrrolo[2,3-b]quinolin-4(2H)-one]
Spinal cord injury
  BBB scoring: significant increasing of BBB scoring
[1]; animals non-treated with CP55,940
  NOR test: effect on memory without cannabinoid: does not impact negatively the memory
[1]; pre-treated animals, CP55,940 exposure
  NOR test: memory after cannabinoid exposure: are not affected by the cannabinoid exposure

From patent publication US10858357B2, “Water-soluble myosin 2 inhibitors for the treatment of neurological, neuropathic or psychiatric diseases” (PARIS SCIENCES ET LETTRES-QUARTIER LATIN, priority 2016, dated 2020)
